From patent publication US11198713B2, “Agents modulating beta-catenin functions and methods thereof” (FOG PHARMACEUTICALS, INC., priority 2017, dated 2021)
pEC50: −log10 of the molar value. Values after ≈ are worked out from the molar mass of the structure shown. Read-outs that look alike come from different tables or passages of the source. Numbered stars: 1 amine (or outer) side, 2 acyl side, 3 side chain; on linkers, the order of the positions; unused ones are H or OH. Bridge positions count the residues as written; N and C are the ends. Square brackets hold non-standard residues; d marks the D form. Peptide text beside a SMILES is read from it. dαMeOrn(Me) = CN(CCC[C@@](C)(N[*:1])C(=O)[*:2])[*:3]; dαMeDab(Me) = CN(CC[C@@](C)(N[*:1])C(=O)[*:2])[*:3]; αMeDab(Me) = CN(CC[C@](C)(N[*:1])C(=O)[*:2])[*:3]; X8 = CN(CC=[*:3])CCC[C@](C)(N[*:1])C(=O)[*:2]; X6 = CN(CC=[*:3])CC[C@](C)(N[*:1])C(=O)[*:2]; X4 = O=C([C@]1(N[*:1])CCN(CC=[*:3])C1)[*:2]; X5 = C[C@](CCCCCC=[*:3])(N[*:1])C(=O)[*:2]; X3 = O=C([C@@]1(N[*:1])CCN([*:3])C1)[*:2]; X7 = C[C@](CCCCC=[*:3])(N[*:1])C(=O)[*:2]; X9 = C[C@](CCC=[*:3])(N[*:1])C(=O)[*:2]; X2 = O=C(OCC=CCOC(=O)[*:2])[*:1]; R8 = C=CCCCCCC[C@@](C)(N)C(=O)O; R5 = C=CCCC[C@@](C)(N)C(=O)O

Assays:
[1] = Solubility in DPBS (A280 of supernatant); assay type: physicochemical; settings: DPBS
Experimental: Suitable assays for assessing solubility are widely known in the art and can be utilized in accordance with the present disclosure. In some embodiments, in an exemplary protocol, dried peptide was reconstituted in DPBS (DPBS, 1×, cell culture grade, Sigma D8537) in triplicate, vortexed, sonicated and then centrifuged. Absorbance of the supernatant was measured at A280 (Nanodrop 2000) and the concentration was determined using the extinction coefficient for tryptophan. Exemplary solubility data are presented in, e.g., Table 2.

[2] = biological target: T1, full-length beta-catenin (Axin site) (Homo sapiens, UniProt P35222); assay: Competition fluorescence polarization assay (Axin site probe); assay type: binding; settings: competition fluorescence polarization, Table 2; read-out: in vitro FP EC50
T1 construct: 15 nM full-length beta-catenin, 20 nM FITC labeled peptide in buffer
T1 sequence (P35222 1-781): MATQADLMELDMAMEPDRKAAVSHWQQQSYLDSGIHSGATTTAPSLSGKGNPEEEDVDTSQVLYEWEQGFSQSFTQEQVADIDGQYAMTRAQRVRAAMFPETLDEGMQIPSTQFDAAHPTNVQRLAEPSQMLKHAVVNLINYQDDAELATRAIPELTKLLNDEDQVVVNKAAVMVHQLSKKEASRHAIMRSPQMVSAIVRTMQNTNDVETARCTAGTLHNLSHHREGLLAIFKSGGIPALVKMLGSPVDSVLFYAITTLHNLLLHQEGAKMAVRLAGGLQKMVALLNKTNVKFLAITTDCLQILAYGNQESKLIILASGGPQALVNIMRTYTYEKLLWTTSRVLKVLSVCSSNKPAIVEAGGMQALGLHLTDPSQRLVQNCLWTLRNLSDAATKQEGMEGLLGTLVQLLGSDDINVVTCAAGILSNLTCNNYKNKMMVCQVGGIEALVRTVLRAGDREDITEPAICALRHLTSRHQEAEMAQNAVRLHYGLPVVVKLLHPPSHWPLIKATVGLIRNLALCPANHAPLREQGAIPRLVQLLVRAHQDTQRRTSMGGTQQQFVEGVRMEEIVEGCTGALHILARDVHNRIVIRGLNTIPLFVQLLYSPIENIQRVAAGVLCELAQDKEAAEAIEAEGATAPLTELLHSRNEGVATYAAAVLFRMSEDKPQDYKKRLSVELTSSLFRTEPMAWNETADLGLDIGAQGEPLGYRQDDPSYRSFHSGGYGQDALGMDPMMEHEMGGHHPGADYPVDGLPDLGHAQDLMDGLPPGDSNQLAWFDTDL
Summary of the method: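 Competition FP: 15 nM full-length β-catenin pre-incubated 5 min with 20 nM FITC-labelled stapled Axin-site peptide, then titrated peptide added (3-fold series from 5 μM) for 15 min in the dark. Buffer 50 mM Tris pH 8.0, 250 mM NaCl, 2% glycerol, 0.5 mM EDTA; duplicate reads.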

[3] = Table 3 Part B, amino-stapled product, read-out: Solubility in DPBS
[4] = Table 3 Part A, read-out: Solubility in DPBS

SMILES	Solubility in DPBS ([1]; Table 3 Part A)	pEC50 [2]	solubility ([1]; Table 2, read-out: Solubility)	solubility [1, 3]	solubility [1, 4]	solubility thermodynamic [1, 4]
CC[C@H](C)[C@@H]1NC(=O)[C@H](Cc2c[nH]cn2)NC(=O)[C@H](C)NC(=O)[C@H](CC(=O)O)NC(=O)[C@H](CC(C)C)NC(=O)[C@H]([C@@H](C)CC)NC(=O)[C@](C)(NC(=O)[C@H](C)NC(C)=O)CCCCC=CCOC(=O)N(C)CCC[C@@](C)(C(=O)N[C@@H](CCCNC(=N)N)C(=O)N[C@H](C(=O)N[C@@H](Cc2c[nH]c3ccccc23)C(N)=O)C(C)C)NC1=O (single isomer, unassigned) [FP0511c Isomer 2, Ac-A-R6-I-L-D-A-H-I-MH-R-V-W-NH2]	24 (Isomer 2) μM	> 7.00				
CC[C@H](C)[C@@H]1NC(=O)[C@H](Cc2c[nH]cn2)NC(=O)[C@H](C)NC(=O)[C@H](CC(=O)O)NC(=O)[C@H](CC(C)C)NC(=O)[C@H]([C@@H](C)CC)NC(=O)[C@](C)(NC(=O)[C@H](C)NC(C)=O)CCCCCCC=CCN2CC[C@@](C(=O)N[C@@H](CCCNC(=N)N)C(=O)N[C@H](C(=O)N[C@@H](Cc3c[nH]c4ccccc34)C(N)=O)C(C)C)(C2)NC1=O [FP0217a, Ac-A-R8-I-L-D-A-H-I-MB-R-V-W-NH2] (Ac-A[R8]ILDAHI[X4]RVW-NH2; staple 2-9)		< 5.30	111 µM (≈ 171 µg/mL)	111 µM (≈ 171 µg/mL)		
CC[C@H](C)[C@@H]1NC(=O)[C@H](Cc2c[nH]cn2)NC(=O)[C@H](C)NC(=O)[C@H](CC(=O)O)NC(=O)[C@H](CC(C)C)NC(=O)[C@H]([C@@H](C)CC)NC(=O)[C@](C)(NC(=O)[C@H](C)NC(=O)CCN)CCCCCCC=CCOC(=O)N2CC[C@@](C(=O)N[C@@H](CCCNC(=N)N)C(=O)N[C@H](C(=O)N[C@@H](Cc3c[nH]c4ccccc34)C(N)=O)C(C)C)(C2)NC1=O [FP0217c_bAfree, bA-A-R8-I-L-D-A-H-I-MB-R-V-W-NH2]		> 7.00	155 µM (≈ 250 µg/mL)			
CC[C@H](C)[C@@H]1NC(=O)[C@H](Cc2c[nH]cn2)NC(=O)[C@H](C)NC(=O)[C@H](CC(=O)O)NC(=O)[C@H](CC(C)C)NC(=O)[C@H]([C@@H](C)CC)NC(=O)[C@](C)(NC(=O)[C@H](C)NC(C)=O)CCCCCCCCCOC(=O)N2CC[C@@](C(=O)N[C@@H](CCCNC(=N)N)C(=O)N[C@H](C(=O)N[C@@H](Cc3c[nH]c4ccccc34)C(N)=O)C(C)C)(C2)NC1=O [FP0217rc, Ac-A-R8-I-L-D-A-H-I-MB-R-V-W-NH2]		> 7.00	26 µM (≈ 41.2 µg/mL)			
CC[C@H](C)[C@@H]1NC(=O)[C@H](Cc2c[nH]cn2)NC(=O)[C@H](C)NC(=O)[C@H](CC(=O)O)NC(=O)[C@H](CC(C)C)NC(=O)[C@H]([C@@H](C)CC)NC(=O)[C@](C)(NC(C)=O)CCCCCCC=CCOC(=O)N2CC[C@@](C(=O)N[C@@H](CCCNC(=N)N)C(=O)N[C@H](C(=O)N[C@@H](Cc3c[nH]c4ccccc34)C(N)=O)C(C)C)(C2)NC1=O [FP0220c, Ac-R8-I-L-D-A-H-I-MB-R-V-W-NH2]		> 7.00	14 µM (≈ 21.2 µg/mL)			
CC[C@H](C)[C@@H]1NC(=O)[C@H](Cc2c[nH]cn2)NC(=O)[C@H](C)NC(=O)[C@H](CC(=O)O)NC(=O)[C@H](CC(C)C)NC(=O)[C@H]([C@@H](C)CC)NC(=O)[C@](C)(NC(=O)[C@H](C)NC(C)=O)CCCCCC=CCN(C)CC[C@@](C)(C(=O)N[C@@H](CCCNC(=N)N)C(=O)N[C@H](C(=O)N[C@@H](Cc2c[nH]c3ccccc23)C(N)=O)C(C)C)NC1=O [FP0503a, Ac-A-R7-I-L-D-A-H-I-MF-R-V-W-NH2] (Ac-A[X5]ILDAHI[X6]RVW-NH2; staple 2-9)		6.30 to 7.00	236 µM (≈ 364 µg/mL)	236 µM (≈ 364 µg/mL)		
CC[C@H](C)[C@@H]1NC(=O)[C@H](Cc2c[nH]cn2)NC(=O)[C@H](C)NC(=O)[C@H](CC(=O)O)NC(=O)[C@H](CC(C)C)NC(=O)[C@H]([C@@H](C)CC)NC(=O)[C@](C)(NC(=O)[C@H](C)NC(C)=O)CCCCCC=CCOC(=O)N(C)CC[C@@](C)(C(=O)N[C@@H](CCCNC(=N)N)C(=O)N[C@H](C(=O)N[C@@H](Cc2c[nH]c3ccccc23)C(N)=O)C(C)C)NC1=O [FP0503c, Ac-A-R7-I-L-D-A-H-I-MF-R-V-W-NH2]		6.30 to 7.00	35 µM (≈ 55.5 µg/mL)		35 µM (≈ 55.5 µg/mL)	
CC[C@H](C)[C@@H]1NC(=O)[C@H](Cc2c[nH]cn2)NC(=O)[C@H](C)NC(=O)[C@H](CC(=O)O)NC(=O)[C@H](CC(C)C)NC(=O)[C@H]([C@@H](C)CC)NC(=O)[C@](C)(NC(=O)[C@H](C)NC(C)=O)CCC=CCN(C)CCC[C@@](C)(C(=O)N[C@@H](CCCNC(=N)N)C(=O)N[C@H](C(=O)N[C@@H](Cc2c[nH]c3ccccc23)C(N)=O)C(C)C)NC1=O [FP0509a, Ac-A-R4-I-L-D-A-H-I-MH-R-V-W-NH2] (Ac-A[X9]ILDAHI[X8]RVW-NH2; staple 2-9)		5.30 to 6.30	192 µM (≈ 291 µg/mL)	192 µM (≈ 291 µg/mL)		
CC[C@H](C)[C@@H]1NC(=O)[C@H](Cc2c[nH]cn2)NC(=O)[C@H](C)NC(=O)[C@H](CC(=O)O)NC(=O)[C@H](CC(C)C)NC(=O)[C@H]([C@@H](C)CC)NC(=O)[C@](C)(NC(=O)[C@H](C)NC(C)=O)CCCC=CCN(C)CCC[C@@](C)(C(=O)N[C@@H](CCCNC(=N)N)C(=O)N[C@H](C(=O)N[C@@H](Cc2c[nH]c3ccccc23)C(N)=O)C(C)C)NC1=O [FP0510a, Ac-A-R5-I-L-D-A-H-I-MH-R-V-W-NH2] (Ac-A[R5]ILDAHI[X8]RVW-NH2; staple 2-9)		5.30 to 6.30	165 µM (≈ 252 µg/mL)	165 µM (≈ 252 µg/mL)		
CC[C@H](C)[C@@H]1NC(=O)[C@H](Cc2c[nH]cn2)NC(=O)[C@H](C)NC(=O)[C@H](CC(=O)O)NC(=O)[C@H](CC(C)C)NC(=O)[C@H]([C@@H](C)CC)NC(=O)[C@](C)(NC(=O)[C@H](C)NC(C)=O)CCCCC=CCN(C)CCC[C@@](C)(C(=O)N[C@@H](CCCNC(=N)N)C(=O)N[C@H](C(=O)N[C@@H](Cc2c[nH]c3ccccc23)C(N)=O)C(C)C)NC1=O [FP0511a, Ac-A-R6-I-L-D-A-H-I-MH-R-V-W-NH2] (Ac-A[X7]ILDAHI[X8]RVW-NH2; staple 2-9)		> 7.00	170 µM (≈ 262 µg/mL)	170 µM (≈ 262 µg/mL)		
CC[C@H](C)[C@@H]1NC(=O)[C@H](Cc2c[nH]cn2)NC(=O)[C@H](C)NC(=O)[C@H](CC(=O)O)NC(=O)[C@H](CC(C)C)NC(=O)[C@H]([C@@H](C)CC)NC(=O)[C@](C)(NC(=O)[C@H](C)NC(C)=O)CCCN(C)C(=O)OCC=CCOC(=O)N(C)CC[C@](C)(C(=O)N[C@@H](CCCNC(=N)N)C(=O)N[C@H](C(=O)N[C@@H](Cc2c[nH]c3ccccc23)C(N)=O)C(C)C)NC1=O [FP0588c, Ac-A-MI-I-L-D-A-H-I-MG-R-V-W-NH2] (Ac-A[dαMeOrn(Me)]ILDAHI[dαMeDab(Me)]RVW-NH2; linker 2-9 via X2)		> 7.00	133 µM (≈ 219 µg/mL)		133 µM (≈ 219 µg/mL)	
CC[C@H](C)[C@@H]1NC(=O)[C@H](Cc2c[nH]cn2)NC(=O)[C@H](C)NC(=O)[C@H](CC(=O)O)NC(=O)[C@H](CC(C)C)NC(=O)[C@H]([C@@H](C)CC)NC(=O)[C@](C)(NC(=O)[C@H](C)NC(C)=O)CCN(C)C(=O)OCC=CCOC(=O)N(C)CC[C@@](C)(C(=O)N[C@@H](CCCNC(=N)N)C(=O)N[C@H](C(=O)N[C@@H](Cc2c[nH]c3ccccc23)C(N)=O)C(C)C)NC1=O [FP0594c, Ac-A-MG-I-L-D-A-H-I-MF-R-V-W-NH2] (Ac-A[dαMeDab(Me)]ILDAHI[αMeDab(Me)]RVW-NH2; linker 2-9 via X2)		6.30 to 7.00	166 µM (≈ 271 µg/mL)		166 µM (≈ 271 µg/mL)	
CC[C@H](C)[C@@H]1NC(=O)[C@H](Cc2c[nH]cn2)NC(=O)[C@H](C)NC(=O)[C@H](CC(=O)O)NC(=O)[C@H](CC(C)C)NC(=O)[C@H]([C@@H](C)CC)NC(=O)[C@](C)(NC(=O)[C@H](C)NC(C)=O)CCN(C)C(=O)OCC=CCOC(=O)N2CC[C@](C(=O)N[C@@H](CCCNC(=N)N)C(=O)N[C@H](C(=O)N[C@@H](Cc3c[nH]c4ccccc34)C(N)=O)C(C)C)(C2)NC1=O [FP0598c, Ac-A-MG-I-L-D-A-H-I-MC-R-V-W-NH2] (Ac-A[dαMeDab(Me)]ILDAHI[X3]RVW-NH2; linker 2-9 via X2)		> 7.00				91 µM (≈ 147 µg/mL)
